{"source": "patent US20230106220A1", "about": "“METHOD FOR TREATMENT OF ROSACEA” (Sol-Gel Technologies Ltd., priority 2019, published 2023)", "key": {"[1]": {"test_system": "patients afflicted with papulopustular rosacea", "assay": "IGA success (2-grade improvement to clear or almost clear), 12-week double-blind vehicle-controlled study of E-BPO cream", "format": "in vivo, human", "details": "four weeks", "description": "(§1) Description: A multi-center, double-blind, randomized, vehicle-controlled, dose-range study of encapsulated 5% benzoyl peroxide (E-BPO) Cream and vehicle cream was performed to assess the efficacy and safety of E-BPO compared to vehicle. Study duration was 12 weeks and included approximately 350 male and female patients afflicted with papulopustular rosacea. Patients were at least 18 years of age, and met the inclusion/exclusion criteria described herein.\n(§2) Dosing: Patients were randomized in a 2:1 ratio to the study product or vehicle treatment group, respectively. […]\n(§3) Patients were admitted into the study after meeting all inclusion/exclusion criteria, including a clinical diagnosis of rosacea and after written informed consent has been obtained. […] At each visit, a 5-point IGA scale of rosacea; rosacea erythema, and telangiectasia; and inflammatory (papules, pustules) lesion counts were performed and recorded.\n(§4) Evaluation of efficacy: The first application of the test product was applied at the investigational site at the end of the Baseline visit (Day 0) under the supervision and instruction of the designated investigational site staff. […] The evaluator also assessed local application site irritation (dryness, scaling, pruritus, stinging and burning) at Baseline and Weeks 2, 4, 8 and 12 (end of study). […]"}, "[2]": {"test_system": "inflammatory lesions (papules, pustules) of patients with papulopustular rosacea", "assay": "Inflammatory lesion count change from baseline, 12-week vehicle-controlled study of E-BPO cream", "format": "in vivo, human", "description": "as §1, §2, §3, §4"}, "rosacea": {"test_system": "rosacea", "details": "BPO as the sole active agent; cited from earlier work"}}}
{"compound": "O=C(OOC(=O)c1ccccc1)c1ccccc1", "note": "[BPO, Benzoyl peroxide]", "values": [{"measurement": "success in IGA relative to the effect observed after treatment with SOOLANTRA", "setting": "[1]", "result": "more than twice"}, {"measurement": "decrease in inflammatory lesions relative to the effect observed after treatment with vehicle cream", "setting": "[2]; after at least 12 weeks of treatment", "result": "more than 1.5 x"}, {"measurement": "decrease in inflammatory lesions", "setting": "[2]; after only 2 weeks of treatment, on average", "result": "about 40%"}, {"measurement": "response of lesions", "setting": "rosacea", "result": "unresponsive"}]}
